The assay has as its target T1, human subtype 5 somatostatin receptor (Homo sapiens, UniProt P35346).
T1 construct: host or cells: CHO cell line, stably transfected; membranes used
The assay is described as follows: radioligand replacement (binding) assay, membranes of CHO cells expressing human SSTR5, 125I-labeled 11-Tyr somatostatin-14 tracer. The following applies: CHO cell membranes, 0.05 nM 125I-labeled 11-Tyr somatostatin-14, 1 h at rt; Ki calculated from IC50 by Cheng-Prussoff equation; read-out: hSSTR5 Ki. Here is the method: A CHO cell line stably transfected with a plasmid encoding the human subtype 5 somatostatin receptor (GenBank accession number D16827) was obtained from Euroscreen. Cells were cultured and used for binding and functional assays.
Membranes of these cells were prepared by sonication in the presence of protease inhibitors and subsequent fractionating centrifugation. The protein concentration in the membrane preparation was determined using a commercial kit (BCA kit, Pierce, USA). Membranes were stored at −80° C. until use. After thawing membranes were diluted in assay buffer (50 mM Tris-HCl at pH 7.4, 5 mM MgCl2 and 0.20% BSA) and subjected to dounce homogenization.
For binding studies, 0.1 mL membrane suspension, corresponding to approximately 6×10^−15 mol receptor, was incubated for 1 h at rt with 0.05 nM ^125I-labeled tracer (11-Tyr somatostatin-14, Perkin-Elmer) and either test compound in varying concentrations or, for the determination of non-specific binding, 0.001 mM non-labeled somatostatin-14. The incubation was stopped by filtration through GF/B glassfiber filters and washing with ice-cold wash buffer (50 mM Tris-HCl at pH 7.4). The bound radioactivity was measured after application of a scintillation cocktail (Microscint 40) and expressed as disintegrations per minute (dpm).
The receptor concentration was determined in a prior saturation experiment where a fixed, arbitrary amount of membranes was incubated with a concentration range of radio-labeled tracer. This allows estimating the total number of specific binding sites per amount of protein (i.e., Bmax), typically between 1 and 5 pmol/mg.
The concentration of the test compound required to result in half maximal inhibition of binding of the radio-labeled tracer (IC50) was estimated from a concentration-versus-dpm graph. The binding affinity (Ki) was calculated from the IC50 by applying the Cheng-Prussoff equation for single binding sites.

In patent publication US20080306116A1, “ARYLOXAZOLE, ARYLOXADIAZOLE AND BENZIMIDAZOLE DERIVATIVES” (priority 2007, published 2008) one finds Ki data, which are given here for 16 compounds.

T1 sequence (P35346 whole entry): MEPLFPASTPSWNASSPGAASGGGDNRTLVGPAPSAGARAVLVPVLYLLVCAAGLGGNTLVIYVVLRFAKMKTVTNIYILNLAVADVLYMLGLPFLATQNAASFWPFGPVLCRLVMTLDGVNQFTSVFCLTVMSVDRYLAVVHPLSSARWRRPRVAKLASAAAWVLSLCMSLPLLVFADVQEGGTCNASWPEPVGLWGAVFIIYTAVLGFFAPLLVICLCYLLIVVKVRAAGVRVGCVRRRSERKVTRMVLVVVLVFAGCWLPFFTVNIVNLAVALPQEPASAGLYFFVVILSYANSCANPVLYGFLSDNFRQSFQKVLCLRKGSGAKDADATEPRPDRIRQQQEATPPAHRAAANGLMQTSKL

On to `CCOc1cc(CN2CCC(Nc3nc(-c4ccccc4)no3)CC2)ccc1C` [Example 1, [1-(3-Ethoxy-4-methyl-benzyl)-piperidin-4-yl]-(3-phenyl-[1,2,4]oxadiazol-5-yl)-amine], for which the Ki was 74 nM.
The result for `CCOc1cc(CN2CCC(Nc3nc(-c4ccccc4)no3)CC2)ccc1Cl` [Example 2, [1-(4-Chloro-3-ethoxy-benzyl)-piperidin-4-yl]-(3-phenyl-[1,2,4]oxadiazol-5-yl)-amine] reads 91 nM; that for `COc1ccc(CN2CCC(Nc3nc(-c4ccccc4)no3)CC2)cc1OCC(C)C` [Example 5, [1-(3-Isobutoxy-4-methoxy-benzyl)piperidin-4-yl]-(3-phenyl-[1,2,4]oxadiazol-5-yl)-amine], 116 nM; that for `CCOc1cc(CN2CCC(Nc3nc(-c4ccccc4)no3)CC2)cc2c1OC(C)(C)C=C2` [Example 7, [1-(8-Ethoxy-2,2-dimethyl-2H-chromen-6-ylmethyl)-piperidin-4-yl]-(3-phenyl-[1,2,4]oxadiazol-5-yl)-amine], 449 nM.
The result for `CCOc1cc(CN2CCC(Nc3nc(-c4ccccc4)no3)CC2)cc(OCC)c1N` [Example 9, [1-(4-Amino-3,5-diethoxy-benzyl)-piperidin-4-yl]-(3-phenyl-[1,2,4]oxadiazol-5-yl)-amine] reads 41 nM; that for `CCOc1cc(CN2CCC(Nc3nc4ccccc4n3C)CC2)ccc1Cl` [Example 11, [1-(4-Chloro-3-ethoxy-benzyl)-piperidin-4-yl]-(1-methyl-1H-benzoimidazol-2-yl)-amine], 42 nM; that for `CC(C)Oc1cc(CN2CCC(Nc3nc4ccccc4n3C)CC2)cc(OC(C)C)c1` [Example 13, [1-(3,5-Diisopropoxy-benzyl)-piperidin-4-yl]-(1-methyl-1H-benzoimidazol-2-yl)-amine], 35 nM.
In the case of `CCOc1cc(CN2CCC(Nc3nc(-c4cccc(OC)c4)co3)CC2)cc(OCC)c1-c1ccc(F)cc1` [Example 15, [1-(2,6-Diethoxy-4′-fluoro-biphenyl-4-ylmethyl)-piperidin-4-yl]-[4-(3-methoxy-phenyl)-oxazol-2-yl]-amine], the Ki was 48 nM.
The result for `CCOc1cc(CN2CCC(Nc3nc(-c4ccc(F)cc4)co3)CC2)cc(OCC)c1F` [Example 19, [1-(3,5-Diethoxy-fluoro-benzyl)-piperidin-4yl]-[4-(4-fluoro-phenyl)-oxazol-2-yl]-amine] reads 26 nM; that for `CCOc1cc(CN2CCC(Nc3nc(-c4ccccc4)co3)CC2)cc(OCC)c1-c1ccc(F)cc1` [Example 24], 27 nM.
The figure for `CCOc1cc(CN2CCC(Nc3nc(-c4ccc(Cl)cc4)co3)CC2)cc(OCC)c1Cl` [Example 27, [1-(4-Chloro-3,5-diethoxy-benzyl)-piperidin-4-yl]-[4(4-chloro-phenyl)oxazol-2-yl]-amine] is 8 nM; for `CCOc1cc(CN2CCC(Nc3ncc(-c4ccccc4)o3)CC2)cc(OCC)c1-c1ccc(F)cc1` [Example 33, [1-(2,6-Diethoxy-4′-fluoro-biphenyl-4-ylmethyl)-piperidin-4-yl]-(5-phenyl-oxazol-2-yl)-amine] it is 28 nM; for `CCOc1cc(CN2CCC(Nc3ncc(-c4ccccc4)o3)CC2)cc(OCC)c1Cl` [Example 37, [1-(4-Chloro-3,5-diethoxy-benzyl)-piperidin-4-yl]-(5-phenyl-oxazol-2-yl)amine] it is 12 nM.
Consider `CCOc1cc(CN2CCC(Nc3ncc(-c4ccc(OC)cc4)o3)CC2)cc(OCC)c1-c1ccc(F)cc1` [Example 40, [1-(2,6-Diethoxy-4′-fluoro-bipehenyl-4-ylmethyl)-piperidin-4-yl]-[5-(4-methoxy-phenyl)-oxazol-2-yl]-amine], for which the inhibition constant Ki is 46 nM.
The figure for `CCOc1cc(CN2CCC(Nc3ncc(-c4ccccc4)o3)CC2)cc(OCC)c1C` [Example 46, [1-(3,5-Diethoxy-4-methyl-benzyl)-piperidin-4-yl]-(5-phenyl-oxazol-2-yl)-amine] is 12 nM; for `CCOc1cc(CN2CCC(Nc3nc(-c4ccc(C(F)(F)F)cc4)co3)CC2)cc(OCC)c1-c1ccc(F)cc1` [Example 49] it is 73 nM.

For orientation: Ki means the equilibrium dissociation constant of an inhibitor or competing ligand from its target.
